According to patent US11046699B2, “Pyrazolo-pyrimidin-amino-cycloalkyl compounds and their therapeutic uses” (RAPT THERAPEUTICS, INC., priority 2018, dated 2021):
Where two headings read alike, the source gives them in different places.

Target: GCN2 (Homo sapiens, UniProt Q9P2K8)
Assay: GCN2 enzymatic endpoint assay: phosphorylation of GFP-eIF2α measured by TR-FRET (Lanthascreen)
Format: biochemical
Procedure, shortened: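 Endpoint kinase reaction with 2 μM ATP and 80 nM GFP-labelled eIF2α substrate, run at room temperature for 90 min, then stopped with EDTA. Phospho-substrate detected by terbium-antibody TR-FRET, activity taken as the 520/495 nm emission ratio.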

[1] = tested as described in Example 77, compound and/or hydrochloride, dihydrochloride or trifluoroacetic acid salt, read-out: IC 50 Activity
[2] = GCN2 biochemical IC50, 4 nM GCN2, 2 μM ATP, 80 nM GFP-eIF2α, 90 min RT, read-out: GCN2 activity

Chain of GCN2 (Q9P2K8 whole entry): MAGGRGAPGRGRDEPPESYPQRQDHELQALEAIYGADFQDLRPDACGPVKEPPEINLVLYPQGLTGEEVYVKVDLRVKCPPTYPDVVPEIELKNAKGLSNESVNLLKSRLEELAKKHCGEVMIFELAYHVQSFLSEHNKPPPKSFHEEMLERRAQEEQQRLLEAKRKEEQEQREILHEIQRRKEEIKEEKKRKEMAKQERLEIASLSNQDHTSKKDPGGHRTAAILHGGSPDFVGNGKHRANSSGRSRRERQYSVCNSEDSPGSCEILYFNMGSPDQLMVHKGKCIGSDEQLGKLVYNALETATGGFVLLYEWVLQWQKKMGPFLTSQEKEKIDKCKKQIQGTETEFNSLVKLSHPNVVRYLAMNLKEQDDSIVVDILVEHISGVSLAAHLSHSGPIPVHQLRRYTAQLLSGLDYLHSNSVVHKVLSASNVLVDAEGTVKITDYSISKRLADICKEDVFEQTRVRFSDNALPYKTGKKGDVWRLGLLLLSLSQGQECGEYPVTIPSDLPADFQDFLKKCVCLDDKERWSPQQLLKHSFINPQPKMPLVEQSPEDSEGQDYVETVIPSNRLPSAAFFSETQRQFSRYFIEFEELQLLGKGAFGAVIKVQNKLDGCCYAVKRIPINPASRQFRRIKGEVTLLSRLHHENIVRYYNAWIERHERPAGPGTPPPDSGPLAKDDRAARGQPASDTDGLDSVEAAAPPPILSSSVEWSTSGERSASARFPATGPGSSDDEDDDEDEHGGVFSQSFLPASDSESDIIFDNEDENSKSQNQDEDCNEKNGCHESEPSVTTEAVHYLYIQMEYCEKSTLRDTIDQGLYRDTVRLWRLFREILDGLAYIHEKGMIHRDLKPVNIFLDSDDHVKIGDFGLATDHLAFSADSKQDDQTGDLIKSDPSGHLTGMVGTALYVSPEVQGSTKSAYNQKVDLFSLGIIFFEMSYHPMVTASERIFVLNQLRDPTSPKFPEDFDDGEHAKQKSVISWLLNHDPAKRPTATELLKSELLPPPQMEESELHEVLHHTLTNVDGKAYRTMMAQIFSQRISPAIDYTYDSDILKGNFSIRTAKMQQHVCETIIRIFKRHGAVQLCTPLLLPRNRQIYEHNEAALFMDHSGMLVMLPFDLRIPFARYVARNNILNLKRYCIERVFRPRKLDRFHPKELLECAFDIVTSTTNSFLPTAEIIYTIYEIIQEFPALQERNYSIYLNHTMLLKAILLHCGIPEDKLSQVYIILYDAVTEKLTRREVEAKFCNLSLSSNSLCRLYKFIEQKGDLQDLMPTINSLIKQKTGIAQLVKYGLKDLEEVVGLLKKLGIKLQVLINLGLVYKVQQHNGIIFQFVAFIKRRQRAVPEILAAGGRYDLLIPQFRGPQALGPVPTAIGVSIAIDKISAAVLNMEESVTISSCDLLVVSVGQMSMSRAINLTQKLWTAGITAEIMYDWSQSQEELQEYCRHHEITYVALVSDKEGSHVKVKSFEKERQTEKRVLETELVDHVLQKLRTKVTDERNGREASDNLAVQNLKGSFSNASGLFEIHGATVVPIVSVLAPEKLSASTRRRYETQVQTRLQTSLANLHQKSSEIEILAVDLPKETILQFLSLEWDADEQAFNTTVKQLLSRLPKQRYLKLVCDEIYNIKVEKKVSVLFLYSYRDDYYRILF

Row | SMILES | IC50 [1] [nM] | IC50 [2] [nM]
1 | CNC(=O)[C@]1(C)CC[C@@H](Nc2ncc3c(Br)nn(-c4cc(CN)cc(C(F)(F)F)c4)c3n2)C1 [(1R,3R)-3-[[1-[3-(aminomethyl)-5-(trifluoromethyl)phenyl]-3-bromo-pyrazolo[3,4-d]pyrimidin-6-yl]amino]-N,1-dimethyl-cyclopentanecarboxamide; 2,2,2-trifluoroacetic acid] | 25 to 200 | –
2 | CNC(=O)[C@]1(C)CC[C@@H](Nc2ncc3c(Br)nn(-c4cc(CN5CCCS5(=O)=O)c5ncccc5c4)c3n2)C1 [(1R,3R)-3-[[3-bromo-1-[8-[(1,1-dioxo-1,2-thiazolidin-2-yl)methyl]-6-quinolyl]pyrazolo[3,4-d]pyrimidin-6-yl]amino]-N,1-dimethyl-cyclopentanecarboxamide] | 25 to 200 | –
3 | CNC(=O)[C@@]1(C)CC[C@@H](Nc2ncc3c(Br)nn(-c4cc(C#N)c5ncccc5c4)c3n2)C1 [(1S,3R)-3-((3-bromo-1-(8-cyanoquinolin-6-yl)-1H-pyrazolo[3,4-d]pyrimidin-6-yl)amino)-N,1-dimethylcyclopentane-1-carboxamide] | 25 to 200 | –
4 | CN1CN(C(=O)C2(C)CC[C@@H](Nc3ncc4c(Br)nn(-c5cc(F)c6ncccc6c5)c4n3)C2)CC1=O (stereo partly drawn) [1-[(3R)-3-[[3-bromo-1-(8-fluoro-6-quinolyl)pyrazolo[3,4-d]pyrimidin-6-yl]amino]-1-methyl-cyclopentanecarbonyl]-3-methyl-imidazolidin-4-one] | < 25 | –
5 | CNC(=O)[C@]1(C)CC[C@@H](Nc2ncc3c(Br)nn(-c4ccc(-c5ncco5)c(CNCC(F)F)c4)c3n2)C1 [(1R,3R)-3-[[3-bromo-1-[3-[(2,2-difluoroethylamino)methyl]-4-oxazol-2-yl-phenyl]pyrazolo[3,4-d]pyrimidin-6-yl]amino]-N,1-dimethyl-cyclopentane-carboxamide] | 25 to 200 | –
6 | CN[C@]1(C)CC[C@@H](Nc2ncc3c(Br)nn(-c4ccc(-c5nnc(C)s5)cc4)c3n2)C1 | 25 to 200 | –
7 | COCCN1CN(C(=O)C2(C)CC[C@@H](Nc3ncc4c(Br)nn(-c5cc(F)c6ncccc6c5)c4n3)C2)CC1=O (stereo partly drawn) [1-[(3R)-3-[[3-bromo-1-(8-fluoro-6-quinolyl)pyrazolo[3,4-d]pyrimidin-6-yl]amino]-1-methyl-cyclopentanecarbonyl]-3-(2-methoxyethyl)imidazolidin-4-one] | < 25 | –
8 | CNC(=O)[C@]1(C)CC[C@@H](Nc2ncc3c(Br)nn(-c4cc(CNCCOC)c5ncccc5c4)c3n2)C1 [(1R,3R)-3-[[3-bromo-1-[8-[(2-methoxy-ethylamino)methyl]-6-quinolyl]pyrazolo [3,4-d]pyrimidin-6-yl]amino]-N,1-dimethyl-cyclopentanecarboxamide] | 25 to 200 | –
9 | CNC(=O)[C@]1(C)CC[C@@H](Nc2ncc3c(Br)nn(-c4ccc5ncn(CCN6C(=O)c7ccccc7C6=O)c(=O)c5c4)c3n2)C1 | 25 to 200 | –
10 | Fc1cc(-n2nc(Br)c3cnc(NC4COC5(CCNCC5)C4)nc32)cc2cccnc12 (stereo not shown) [N-[3-bromo-1-(8-fluoro-6-quinolyl)pyrazolo [3,4-d]pyrimidin-6-yl]-1-oxa-8-azaspiro[4.5] decan-3-amine] | 25 to 200 | –
11 | CNC(=O)CC1CC(Nc2ncc3c(Br)nn(-c4ccc(-c5nnc(C)s5)cc4)c3n2)C1 (stereo not shown) | 25 to 200 | –

Second part, the compound after the results:

Row | IC50 [1] [nM] | IC50 [2] [nM] | SMILES
12 | 500 to 1000 | – | CNC(=O)[C@@]1(C)CC[C@@H](Nc2ncc3c(Br)nn(-c4ccc5nccnc5c4)c3n2)C1 [(1S,3R)-3-((3-bromo-1-(quinoxalin-6-yl)-1H-pyrazolo[3,4-d]pyrimidin-6-yl)amino)-N,1-dimethylcyclopentane-1-carboxamide]
13 | 25 to 200 | – | C[C@H]1CN(C(=O)[C@@H]2CC[C@@H](Nc3ncc4c(Br)nn(-c5ccc6ncccc6c5)c4n3)C2)CCO1 [((1R,3R)-3-((3-bromo-1-(quinolin-6-yl)-1H-pyrazolo[3,4-d]pyrimidin-6-yl)amino)cyclo-pentyl)((S)-2-methylmorpholino)methanone]
14 | – | < 25 | CNC(=O)[C@]1(C)CC[C@@H](Nc2ncc3c(Br)nn(-c4ccc(-c5nnc(C)o5)c(C#N)c4)c3n2)C1 [Example 35, (1R,3R)-3-((3-bromo-1-(3-cyano-4-(5-methyl-1,3,4-oxadiazol-2-yl)phenyl)-1H-pyrazolo[3,4-d]pyrimidin-6-yl)amino)-N,1-dimethylcyclopentane-1-carboxamide; 2,2,2-trifluoroacetic acid]
15 | 200 to 500 | – | O=C(NC1CCS(=O)(=O)CC1)[C@@H]1CC[C@@H](Nc2ncc3c(Br)nn(-c4ccc(-c5cccnc5)cc4)c3n2)C1
16 | 25 to 200 | – | COCCNC(=O)[C@@H]1CC[C@@H](Nc2ncc3c(Br)nn(-c4ccc5ncc(F)cc5c4)c3n2)C1 [(1R,3R)-3-((3-bromo-1-(3-fluoroquinolin-6-yl)-1H-pyrazolo[3,4-d]pyrimidin-6-yl)amino)-N-(2-methoxyethyl)cyclopentane-1-carboxamide]
17 | 25 to 200 | – | Cc1nnc(-c2ccc(-n3nc(Br)c4cnc(N[C@@H]5CC[C@H](P(C)(C)=O)C5)nc43)cc2)s1 [3-bromo-N-[(1R,3S)-3-dimethylphosphoryl-cyclopentyl]-1-[4-(5-methyl-1,3,4-thiadiazol-2-yl)phenyl]pyrazolo[3,4-d]pyrimidin-6-amine]
18 | 25 to 200 | – | O=C(N[C@H]1C[C@H](O)C1)[C@@H]1CC[C@@H](Nc2ncc3c(Br)nn(-c4cc(F)c5ncccc5c4)c3n2)C1
19 | 200 to 500 | – | COCCNC(=O)[C@@H]1CC[C@@H](Nc2ncc3c(Br)nn(-c4ccc5nc(C)ccc5c4)c3n2)C1 [(1R,3R)-3-((3-bromo-1-(2-methylquinolin-6-yl)-1H-pyrazolo[3,4-d]pyrimidin-6-yl)amino)-N-(2-methoxyethyl)cyclopentane-1-carboxamide]
20 | 25 to 200 | – | O=C1CN(C(=O)[C@@H]2CC[C@@H](Nc3ncc4c(Br)nn(-c5ccc(-c6ncco6)cc5)c4n3)C2)CCN1 [4-((1R,3R)-3-((3-bromo-1-(4-(oxazol-2-yl)phenyl)-1H-pyrazolo[3,4-d]pyrimidin-6-yl)amino)cyclopentane-1-carbonyl)piperazin-2-one]
21 | 25 to 200 | – | COC(=O)N1CC[C@@H](Nc2ncc3c(Br)nn(-c4ccc(-c5nnc(C)s5)cc4)c3n2)C1
22 | 25 to 200 | – | CNC(=O)[C@]1(C)CC[C@@H](Nc2ncc3c(Br)nn(-c4ccc(-c5nnc(C(C)N)s5)cc4)c3n2)C1 (stereo partly drawn) [(1R,3R)-3-[[1-[4-[5-(1-aminoethyl)-1,3,4-thiadiazol-2-yl]phenyl]-3-bromo-pyrazolo [3,4-d]pyrimidin-6-yl]amino]-N,1-dimethyl-cyclopentanecarboxamide]
23 | – | 25 to 200 | CNC(=O)[C@]1(C)CC[C@@H](Nc2ncc3c(Br)nn(-c4ccc5ncc(C(C)(C)O)cc5c4)c3n2)C1 [Example 21, (1R,3R)-3-((3-bromo-1-(3-(2-hydroxypropan-2-yl)quinolin-6-yl)-1H-pyrazolo[3,4-d]pyrimidin-6-yl)amino)-N,1-dimethylcyclopentane-1-carboxamide]
24 | 25 to 200 | – | CN(C)CCNC(=O)[C@@H]1CC[C@@H](Nc2ncc3c(Br)nn(-c4ccc5ncccc5c4)c3n2)C1 [(1R,3R)-3-((3-bromo-1-(quinolin-6-yl)-1H-pyrazolo[3,4-d]pyrimidin-6-yl)amino)-N-(2-(dimethylamino)ethyl)cyclopentane-1-carboxamide]
25 | 25 to 200 | – | CNC(=O)[C@]1(CC(F)F)CC[C@@H](Nc2ncc3c(Br)nn(-c4ccc(-c5nnc(C)o5)cc4)c3n2)C1 [(1R,3R)-3-[[3-bromo-1-[4-(5-methyl-1,3,4-oxadiazol-2-yl)phenyl]pyrazolo[3,4-d]pyrimidin-6-yl]amino]-1-(2,2-difluoroethyl)-N-methyl-cyclopentanecarboxamide]
